Experimental findings from EP4029501A1, “COMBINATION OF POLYAROMATIC UREA DERIVATIVES AND GLUCOCORTICOID OR HDAC INHIBITOR FOR THE TREATMENT OF DISEASES OR CONDITIONS ASSOCIATED WITH MUSCLE CELLS AND/OR SATELLITE CELLS” (Anagenesis Biotechnologies, priority 2021, dated 2022) are described below.

The test system of the assay is muscle progenitors derived from DMD hiPSC. Nature of the assay: Myotube assay: total myotube area per well (alpha-actinin staining). It counts as cell-based, human. The note with it: Homo sapiens, Myotube, 72 h, DMD or WT cell source not given; for Emax: efficacy, MA = normalized Myotube Area, 3 days incubation; for EC50: myogenic activity, half-maximal generation of myotubes, 10 points dose-response 1.5 nM to 30 µM, 3 days. The method in brief: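 DMD hiPSC-derived muscle progenitors (NCRM-1 background) plated at 3500 cells/well in K5 medium with 5 µM Y-27632, then exposed to compound at 1.5 nM–30 µM for 3 days at 37°C. Cells fixed on day 7, alpha-actinin-immunostained and total myotube area per well quantified; duplicates averaged, EC50 and normalized myotube area derived.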

Counter-ions that a name gives are not always drawn. A value given as a limit tells only on which side of the number the result lay.

One may read the Emax as the greatest response seen or fitted, relative to the assay's reference. The term EC50 denotes the midpoint of the concentration-response curve. Molecule `CC(C)(C)c1cc(NC(=O)Nc2cccc(Oc3ccnc4[nH]c(=O)cnc34)c2F)n(-c2ccccc2)n1` [(cw), 1-(3-(tert-butyl)-1-phenyl-1 H-pyrazol-5-yl)-3-(2-fluoro-3-((3-oxo-3,4-dihydropyrido[2,3-b]pyrazin-8-yl)oxy)phenyl)urea] registered an Emax of at least 75% and an EC50 of at least 5000 nM.
The molecule `CC(C)(C)c1cc(NC(=O)Nc2ccc(Oc3ccnc4c3CCC(=O)N4)c3ccccc23)on1` [(dg), 1-(3-(tert-butyl)isoxazol-5-yl)-3-(4-((7-oxo-5,6,7,8-tetrahydro-1,8-naphthyridin-4-yl)oxy)naphthalen-1-yl)urea] registered an Emax of at least 75% and an EC50 of under 500 nM.
On to `COc1ccccc1-n1nc(C(C)(C)C)cc1NC(=O)Nc1ccc(Oc2ccnc3[nH]c(=O)cnc23)cc1SC` [(av), 1-(3-(tert-butyl)-1-(2-methoxyphenyl)-1H-pyrazol-5-yl)-3-(2-(methylthio)-4-((3-oxo-3,4-dihydropyrido[2,3-b]pyrazin-8-yl)oxy)phenyl)urea], for which the Emax was at least 75%.
`CC(=O)Nc1cc(Oc2ccc(NC(=O)Nc3cc(C(C)(C)C)nn3-c3ccccc3)c3ccccc23)ccn1` [(dj), N-(4-((4-(3-(3-(tert-butyl)-1-phenyl-1H-pyrazol-5-yl)ureido)naphthalen-1-yl)oxy)pyridin-2-yl)acetamide] came in with an Emax of at least 75% and an EC50 of under 500 nM.
The like results for `CC(=O)Nc1cc(Oc2ccc(NC(=O)Nc3cc(C(C)(C)C)nn3-c3ccccc3)c(F)c2)ccn1` [(ae), N-(4-(4-(3-(3-(tert-butyl)-1-phenyl-1H-pyrazol-5-yl)ureido)-3-fluorophenoxy)pyridin-2-yl)acetamide] were, in that order, 50 to 75% and at least 5000 nM.
Consider `CSc1cc(Oc2ccnc3[nH]c(=O)cnc23)ccc1NC(=O)Nc1nc(-c2ccc(F)c(F)c2)cs1` [(ax), 1-(4-(3,4-difluorophenyl)thiazol-2-yl)-3-(2-(methylthio)-4-((3-oxo-3,4-dihydropyrido[2,3-b]pyrazin-8-yl)oxy)phenyl)urea], for which the Emax fell in the range of 50 to 75% and the EC50 is at least 5000 nM.
For `CC1(c2cc(NC(=O)Nc3ccc(Oc4ccnc5[nH]c(=O)cnc45)cc3F)n(-c3ccccc3)n2)COC1` [(f), 1-(2-fluoro-4-((3-oxo-3,4-dihydropyrido[2,3-b]pyrazin-8-yl)oxy)phenyl)-3-(3-(3-methyloxetan-3-yl)-1-phenyl-1 H-pyrazol-5-yl)urea], in that order: 50 to 75% and at least 5000 nM.
In the case of `CCOC(=O)Nc1cc(Oc2ccc(NC(=O)Nc3cc(C(C)(C)C)no3)c(SC)c2)ccn1` [(de), ethyl (4-(4-(3-(3-(tert-butyl)isoxazol-5-yl)ureido)-3-(methylthio)phenoxy)pyridin-2-yl)carbamate], the Emax was at least 75% and the EC50 was under 500 nM.
The like results for `CSc1cc(Oc2ccncc2)ccc1NC(=O)Nc1cc(C(C)(C)C)nn1-c1ccccc1` [(dk), 1-(3-(tert-butyl)-1-phenyl-1 H-pyrazol-5-yl)-3-(2-(methylthio)-4-(pyridin-4-yloxy)phenyl)urea] were, in that order, 25 to 50% and at least 5000 nM.
The like results for `COc1cccc(-n2nc(C(C)(C)C)cc2NC(=O)Nc2ccc(Oc3ccnc4[nH]c(=O)cnc34)cc2SC)c1` [(aw), 1-(3-(tert-butyl)-1-(3-methoxyphenyl)-1 H-pyrazol-5-yl)-3-(2-(methylthio)-4-((3-oxo-3,4-dihydropyrido[2,3-b]pyrazin-8-yl)oxy)phenyl)urea] were, in that order, at least 75% and 500 to 1000 nM.
On to `CC(C)(C)c1cc(NC(=O)Nc2cc(F)c(Oc3ccnc4[nH]c(=O)cnc34)cc2F)n(-c2ccccc2)n1` [(bt), 1-(3-(tert-butyl)-1-phenyl-1 H-pyrazol-5-yl)-3-(2,5-difluoro-4-((3-oxo-3,4-dihydropyrido[2,3-b]pyrazin-8-yl)oxy)phenyl)urea], for which the Emax was at least 75% and the EC50 was in the range of 500 to 1000 nM.
`CC(C)(C)c1cc(NC(=O)Nc2ccc(Oc3ccnc4[nH]c(=O)cnc34)nc2)n(-c2ccccc2)n1` [(t), 1-(3-(tert-butyl)-1-phenyl-1 H-pyrazol-5-yl)-3-(6-((3-oxo-3,4-dihydropyrido[2,3-b]pyrazin-8-yl)oxy)pyridin-3-yl)urea] registered an Emax of 25 to 50% and an EC50 of under 500 nM.
`CSc1cc(Oc2ccnc3[nH]c(=O)cnc23)ccc1NC(=O)Nc1cc(C(C)(C)C)nn1-c1ccc(OCCN2CCOCC2)cc1` [(cf), 1-(3-(tert-butyl)-1-(4-(2-morpholinoethoxy)phenyl)-1 H-pyrazol-5-yl)-3-(2-(methylthio)-4-((3-oxo-3,4-dihydropyrido[2,3-b]pyrazin-8-yl)oxy)phenyl)urea] displayed an Emax of at least 75% and an EC50 of 500 to 1000 nM.
For `CSc1cc(Oc2ccnc3[nH]c(=O)cnc23)ccc1NC(=O)Nc1cc(C(C)(C)C)nn1-c1cccc(Cl)c1` [(as), 1-(3-(tert-butyl)-1-(3-chlorophenyl)-1H-pyrazol-5-yl)-3-(2-(methylthio)-4-((3-oxo-3,4-dihydropyrido[2,3-b]pyrazin-8-yl)oxy)phenyl)urea], in that order: at least 75% and under 500 nM.
Consider `CC(C)(C)c1cc(NC(=O)Nc2ccc(Oc3ccnc4[nH]c(=O)cnc34)cc2)n(-c2ccccc2)n1` [(s), 1-(3-(tert-butyl)-1-phenyl-1 H-pyrazol-5-yl)-3-(4-((3-oxo-3,4-dihydropyrido[2,3-b]pyrazin-8-yl)oxy)phenyl)urea], for which the Emax is 50 to 75% and the EC50 was 500 to 1000 nM.
For `CCSc1cc(Oc2ccnc3[nH]c(=O)cnc23)ccc1NC(=O)Nc1cc(C(C)(C)C)nn1-c1ccccc1` [(am), 1-(3-(tert-butyl)-1-phenyl-1 H-pyrazol-5-yl)-3-(2-(ethylthio)-4-((3-oxo-3,4-dihydropyrido[2,3-b]pyrazin-8-yl)oxy)phenyl)urea], in that order: at least 75% and under 500 nM.
On to `CNC(=O)c1cncc(Oc2ccc(NC(=O)Nc3cc(C(C)(C)C)nn3-c3ccccc3)c(SC)c2)c1` [(ai), 5-(4-(3-(3-(tert-butyl)-1-phenyl-1H-pyrazol-5-yl)ureido)-3-(methylthio)phenoxy)-N-methylnicotinamide], for which the EC50 lay in the range of 500 to 1000 nM.
With `CNC(=O)c1ccc(Oc2ccc(NC(=O)Nc3cc(C(C)(C)C)nn3-c3ccccc3)c(SC)c2)cn1` [(ap), 5-(4-(3-(3-(tert-butyl)-1-phenyl-1H-pyrazol-5-yl)ureido)-3-(methylthio)phenoxy)-N-methylpicolinamide], the Emax was 25 to 50% and the EC50 was 500 to 1000 nM.
Molecule `Cc1nc2c(Oc3ccc(NC(=O)Nc4cc(C(C)(C)C)nn4-c4ccccc4)c(F)c3)ccnc2c(=O)[nH]1` [(w), 1-(3-(tert-butyl)-1-phenyl-1 H-pyrazol-5-yl)-3-(2-fluoro-4-((2-methyl-4-oxo-3,4-dihydropyrido[3,2-d]pyrimidin-8-yl)oxy)phenyl)urea] registered a maximal effect (Emax) of 50 to 75% and an EC50 of 1000 to 5000 nM.
The like results for `O=C(Nc1ccc(Oc2ccnc3[nH]c(=O)cnc23)cc1F)Nc1c2c(nn1-c1ccccc1)CCC2` [(x), 1-(2-fluoro-4-((3-oxo-3,4-dihydropyrido[2,3-b]pyrazin-8-yl)oxy)phenyl)-3-(2-phenyl-2,4,5,6-tetrahydrocyclopenta[c]pyrazol-3-yl)urea] were, in that order, 25 to 50% and at least 5000 nM.
The like results for `O=C(Nc1ccc(Oc2ccnc3[nH]c(=O)cnc23)cc1F)Nc1c(-c2ccccc2)nn2c1CCC2` [(y), 1-(2-fluoro-4-((3-oxo-3,4-dihydropyrido[2,3-b]pyrazin-8-yl)oxy)phenyl)-3-(2-phenyl-5,6-dihydro-4H-pyrrolo[1,2-b]pyrazol-3-yl)urea] were, in that order, 25 to 50% and at least 5000 nM.
For the molecule `CC(C)(C)c1nnc(NC(=O)Nc2ccc(Oc3ccnc4[nH]c(=O)cnc34)cc2F)s1` [(r), 1-(5-(tert-butyl)-1,3,4-thiadiazol-2-yl)-3-(2-fluoro-4-((3-oxo-3,4-dihydropyrido[2,3-b]pyrazin-8-yl)oxy)phenyl)urea], the Emax is at least 75% and the half-maximal effective concentration (EC50) is at least 5000 nM.
Regarding `CC(C)(C)c1cc(NC(=O)Nc2ccc(Oc3ccncc3)cc2)n(-c2ccccc2)n1` [(bl), 1-(3-(tert-butyl)-1-phenyl-1 H-pyrazol-5-yl)-3-(4-(pyridin-4-yloxy)phenyl)urea], the Emax fell in the range of 50 to 75% and the EC50 is 500 to 1000 nM.
The like results for `CC(C)(C)c1cc(NC(=O)Nc2ccc(Oc3ccc(F)cc3)cc2F)n(-c2ccccc2)n1` [(af), 1-(3-(tert-butyl)-1-phenyl-1 H-pyrazol-5-yl)-3-(2-fluoro-4-(4-fluorophenoxy)phenyl)urea] were, in that order, 25 to 50% and 1000 to 5000 nM.
For `CSc1cc(Oc2ccnc3[nH]c(=O)cnc23)ccc1NC(=O)Nc1cc(C(C)(C)C)on1` [(dh), 1-(5-(tert-butyl)isoxazol-3-yl)-3-(2-(methylthio)-4-((3-oxo-3,4-dihydropyrido[2,3-b]pyrazin-8-yl)oxy)phenyl)urea], in that order: at least 75% and 1000 to 5000 nM.
For the molecule `CSc1cc(Oc2ccnc3[nH]c(=O)[nH]c23)ccc1NC(=O)Nc1cc(C(C)(C)C)nn1-c1ccccc1` [(dm), 1-(3-(tert-butyl)-1-phenyl-1H-pyrazol-5-yl)-3-(2-(methylthio)-4-((2-oxo-2,3-dihydro-1H-imidazo[4,5-b]pyridin-7-yl)oxy)phenyl)urea], the Emax is at least 75% and the EC50 was 1000 to 5000 nM.
For `CSc1cc(Oc2ccnc(N)c2)ccc1NC(=O)Nc1cc(C(C)(C)C)nn1-c1ccccc1` [(bj), 1-(4-((2-aminopyridin-4-yl)oxy)-2-(methylthio)phenyl)-3-(3-(tert-butyl)-1-phenyl-1H-pyrazol-5-yl)urea hydrochloride], in that order: at least 75% and at least 5000 nM.
